Measurements as given in patent US11014942B2, “Preparation of a solid form of gadobenate dimeglumine” (BRACCO IMAGING S.P.A., priority 2014, dated 2021).

How the values were obtained:
[1] = cited from earlier work; for Log P of antisolvent B: Table 1, CRC Handbook, values labelled * from U.S. National Library of Medicine; for log P (octanol/water partition coefficient): values listed in the description, CRC Handbook or US National Library of Medicine tables
[2] = solubility in solvent A (upper concentration limit); assay type: physicochemical
Text: Higher concentrations (of the gadobenate compound in the solvent A), for instance of at least 10% or, preferably, equal to or higher than 20%, are, however, preferred for the use of the invention, conveniently reducing organic solvent waste.

[3] = water dissolution of the solid form; assay type: physicochemical
Text: As formerly discussed, the complex compound collected with the proposed process is endowed with a good stability, favorable workability and, especially, optimal water solubility.

[4] = storage stability of the collected solid; assay type: physicochemical; conditions: when properly stored, under inert atmosphere
Text: Moreover, after its isolation, the collected solid product can conveniently be stored for long periods of time, for instance up to 2 years when properly stored, (i.e. under inert atmosphere) in a form that is ready for use in the preparation of the MultiHance® formulation, by simple dissolution of the solid compound in the proper amount of a pharmaceutically acceptable aqueous solution, such as, for instance, the sterile water for injections (WFI) or any another proper aqueous medium, according to procedures commonly employed in the art.

Row | Compound | Log P of antisolvent B [1] | log P (octanol/water partition coefficient) [1] | further results
1 | COCC(C)O (stereo not drawn) [1-methoxy-2-propanol] | −0.44 | −0.437 | 
2 | CCC(C)=O [2-butanone] |  | 0.29 | 
3 | O=C1CCCCC1 [cyclohexanone] |  | 0.81 | 
4 | COCCOCCOC [diethylene glycol dimethyl ether] | −0.36* | −0.36 | 
5 | O=C([O-])CN(CCN(CC(=O)[O-])CC(=O)[O-])CCN(CC(=O)O)C(COCc1ccccc1)C(=O)O.[Gd+3] (stereo not drawn) [gadobenate dimeglumine, gadolinium complex of the 4-carboxy-5,8,11-tris(carboxymethyl)-1-phenyl-2-oxa-5,8,11-triazatridecan-13-oic acid] |  |  | upper concentration limit consistent with solubility in methanol ([2]; solvent A methanol): about 50%; upper concentration limit based on solubility in water or aqueous solvent ([2]; solvent A water or aqueous solvent such as saline solution): about 70%; water required for complete dissolution ([3]; at 25-30° C.): less than 1 mL of water for 1 g of product; time to complete ready dissolution in water ([3]; less than 1 mL of water for 1 g of product at 25-30° C.): less than five minutes; storage time of the collected solid product [4]: up to 2 years
6 | CC(=O)CC(C)C [methyl isobutyl ketone] | 0.56 | 0.56 | 
7 | C1CCOC1 [tetrahydrofurane] | 0.46 | 0.46 | 
